Reference: patent publication US20110124719A1, “COMPOSITION FOR PROMOTING PRODUCTION OF HYALURONIC ACID CONTAINING KAEMPFEROL AND QUERCETIN” (Amorepacific Corporation, priority 2004, published 2011)

Columns and labels:
Type in all cases: cell-based, human
[1] = system: hyaluronan synthase 2 (HAS2); assay: Quantitative reverse transcription PCR of HAS2 mRNA in HaCaT cells; conditions: treated 24 hours, expressed in treatment groups as well as the control group
Excerpt: In order to examine an effect of increasing an expression of a HAS gene by kaempferol and quercetin in HaCaT which is a skin cell line of human epidermis, HaCaT cells were respectively treated with kaempferol and quercetin in several concentrations, then the HAS gene was subject to quantitative reverse transcription PCR so as to examine an expression of the HAS gene in a level of mRNA and thus changes of the HAS genes by kaempferol and quercetin were examined as follows. Human keratinocyte cell line, HaCaT cell, which was spontaneously immortalized, was used and obtained from Dr. N. E. Fusenig (Deutsches Krebsforschungszentrum (DKFZ), Heidelberg, Germany). […] A concentration of RNA was measured with a spectrophotometry method and a quality of RNA was checked with an agarose gel electrophoresis. It was examined through a quantitative reverse transcription PCR kaempferol and quercetin's influences on mRNA synthesis of hyaluronan synthase 1 (NAS1), hyaluronan synthase 2 (HAS2) and hyaluronan synthase 3 (HAS3), which are isoforms of hyaluronic acid synthase, as follows. Firstly, a RNA prepared and quantified in the above experimental example 1-2 was subject to a reverse transcription and then it was performed a quantitative PCR under the presence of primers specific for HAS1, HAS2 and HAS3 which are isoforms of hyaluronic acid synthase. […]

[2] = system: hyaluronan synthase 3 (HAS3); assay: Quantitative reverse transcription PCR of HAS3 mRNA in HaCaT cells; conditions: 24 hours
Excerpt: In order to examine an effect of increasing an expression of a HAS gene by kaempferol and quercetin in HaCaT which is a skin cell line of human epidermis, HaCaT cells were respectively treated with kaempferol and quercetin in several concentrations, then the HAS gene was subject to quantitative reverse transcription PCR so as to examine an expression of the HAS gene in a level of mRNA and thus changes of the HAS genes by kaempferol and quercetin were examined as follows. Human keratinocyte cell line, HaCaT cell, which was spontaneously immortalized, was used and obtained from Dr. N. E. Fusenig (Deutsches Krebsforschungszentrum (DKFZ), Heidelberg, Germany). Firstly, the cells were cultured in a Dulbecco's modified Eagle's media (DMEM) containing 10% fetal bovine serum (HyClone), sodium bicarbonate 3.6 g/l and antibody (streptomycin 100 μg and penicillin 100 IU/l) (Life Technologies, Inc.) under proper culture conditions (37° C., 5% CO2, 95% air). […] A control group was diluted in a ratio of 1:1,000 and cultured in a medium supplemented with vehicle (dimethylsulfoxide, DMSO). It was not observed any effects of DMSO influencing on growth and differentiation in the control group culture. The HaCaT cells cultured in the experimental example 1-1 were cleaned two times with a phosphate-buffered saline (Life Technologies, Inc.) and RNAs of all cells were separated using a trizol reagent (GibcoBRL Life Technologies, Grand Island, N.Y.) according to manufacturer's instructions. A concentration of RNA was measured with a spectrophotometry method and a quality of RNA was checked with an agarose gel electrophoresis. It was examined through a quantitative reverse transcription PCR kaempferol and quercetin's influences on mRNA synthesis of hyaluronan synthase 1 (NAS1), hyaluronan synthase 2 (HAS2) and hyaluronan synthase 3 (HAS3), which are isoforms of hyaluronic acid synthase, as follows. Firstly, a RNA prepared and quantified in the above experimental example 1-2 was subject to a reverse transcription and then it was performed a quantitative PCR under the presence of primers specific for HAS1, HAS2 and HAS3 which are isoforms of hyaluronic acid synthase. […]

HaCaT cells [3] = assay: HA-ELISA of hyaluronic acid discharged into culture medium of HaCaT cells; conditions: 24 hours
Description: Firstly, the cells were cultured in a Dulbecco's modified Eagle's media (DMEM) containing 10% fetal bovine serum (HyClone), sodium bicarbonate 3.6 g/l and antibody (streptomycin 100 μg and penicillin 100 IU/l) (Life Technologies, Inc.) under proper culture conditions (37° C., 5% CO2, 95% air). The medium was replaced every three days and the cells were secondary-cultured in a division ratio of 1:5 as soon as the density thereof reached the highest. 1×10^5 cells per 75 cm^2 of a tissue culture flask were aliquot 72 hours before the cell were treated with kaempferol or quercetin, and then cultured in a medium containing 10% fetal bovine serum for 48 hours. Then, the cells were cultured in a serum-free medium for 24 hours, treated with kaempferol and quercetin in concentrations of […], 1 μM and 10 μM, respectively and then cultured for 24 hours. A control group was diluted in a ratio of 1:1,000 and cultured in a medium supplemented with vehicle (dimethylsulfoxide, DMSO).
In order to examine that a production of hyaluronic acid was actually promoted by kaempferol and quercetin, a culture medium of HaCaT cell, which is a skin cell line of human epidermis was treated with kaempferol and quercetin, in several concentrations. After that, an amount of hyaluronic acid that synthesis of hyaluronic acid is promoted and then the acid is discharged into the medium was quantified using HA-ELISA Kit.
To perform the ELISA, it was purchased a Hyaluronan Enzyme-Linked ImmunoSorbent Assay Kit (HA-ELISA, Product No.: K-1200) available from Echelon company. The medium recovered through the above cell cultivation was subject to the HA-ELISA Kit according to manufacturer's instructions, thereby quantifying the synthesis amount of hyaluronic acid that was synthesized in HaCaT cell by kaempferol and quercetin and then discharged into the medium. The control group was diluted in a ratio of 1:1,000 and then cultured in a medium supplemented with vehicle (dimethylsulfoxide, DMSO).
(§1) A significance was considered, based on p=0.05 and data was shown with mean±standard error.

HaCaT cells [4] = assay: MTT assay of cytotoxicity in HaCaT cells; conditions: 24 hours
Description: In order to examine cytotoxicity of kaempferol and quercetin in HaCaT, which is a skin cell line of human epidermis, according to the concentrations thereof, HaCaT was treated with kaempferol and quercetin in several concentrations and then degrees of cytotoxicity were quantified through a MTT assay.
HaCaT of human keratinocyte cell line, which was spontaneously immortalized, was used and obtained from Dr. N. E. Fusenig (Deutsches Krebsforschungszentrum (DKFZ), Heidelberg, Germany). The cells were cultured in a Dulbecco's modified Eagle's media (DMEM) containing 10% fetal bovine serum (HyClone), sodium bicarbonate 3.6 g/l and antibody (streptomycin 100 μg and penicillin 100 IU/l) (Life Technologies, Inc.) under proper culture conditions (37° C., 5% CO2, 95% air). The medium was replaced every three days and the cells were secondary-cultured in a division ratio of 1:5 as soon as the density thereof reached the highest. 1×10^4 cells per well of a tissue culture flask 96 well plate were aliquot 72 hours before the cells were treated with kaempferol or quercetin, and then cultured in a medium containing 10% fetal bovine serum for 48 hours. Then, the cells were cultured for 24 hours in a serum-free medium, treated with kaempferol and quercetin in concentrations of 0.1 μM, 1 μM and 10 μM, respectively and then cultured for 24 hours. A control group was diluted in a ratio of 1:1,000 and cultured in a medium supplemented with vehicle (dimethylsulfoxide, DMSO).
as §1

Row | Structure (SMILES) | expression of HAS2 hyaluronic acid synthase gene (mRNA) [1] | HAS3 mRNA expression compared to the control group ([2]; 1 μM) | HAS3 mRNA expression compared to the control group ([2]; 10 μM) | increase of hyaluronic acid synthesis compared to the control group (HaCaT cells [3]; 1 μM) [%] | increase of hyaluronic acid synthesis compared to the control group (HaCaT cells [3]; 10 μM) [%] | cytotoxicity compared to the control group (MTT) (HaCaT cells [4]; 0.1 μM) | cytotoxicity compared to the control group (MTT) (HaCaT cells [4]; 1 μM) | cytotoxicity compared to the control group (MTT) (HaCaT cells [4]; 10 μM)
1 | O=c1c(O)c(-c2ccc(O)cc2)oc2cc(O)cc(O)c12 [kaempferol, Kaempferol] | expressed | increased | increased | 7 | 8 | did not exhibit cytotoxicity | did not exhibit cytotoxicity | did not exhibit cytotoxicity
2 | O=c1c(O)c(-c2ccc(O)c(O)c2)oc2cc(O)cc(O)c12 [quercetin] | expressed | increased | increased | 11 | 24 | did not exhibit cytotoxicity | did not exhibit cytotoxicity | did not exhibit cytotoxicity
